According to patent EP0195316A1, “Quinolonecarboxylic acid derivatives” (KYORIN PHARMACEUTICAL CO., LTD., priority 1985, dated 1986):
In brackets after ≈: the same amount, converted by molar mass. Where two headings read alike, the source gives them in different places.

What was measured:
[1] = tested on: C. freundii; assay: MIC, in vitro antibacterial activity (clinical isolates); format: cell-based; settings: Citrobacter freundii, No. of strains 9
[2] = tested on: S. epidermidis; assay: as above; format: cell-based; settings: Staphylococcus epidermidis, No. of strains 10
[3] = tested on: S. aureus Smith; format: cell-based; settings: Conc. of Drugs 2MIC
[4] = tested on: Bacteroides fragilis 2; assay: Experimental local infection with anaerobic bacteria in granuloma pouches in rats; format: in vivo; settings: 25 mg/kg, p.o., pouch exudate, Mean ± S.D. (n=3)
Protocol: Under ether anesthesia, male Wistar rats (7 weeks old) were injected subcutaneously on the back with 20 ml of germ-free air (sterilized by membrane filtration, 0.45 µm pore size) by means of a syringe. Continuously, an inflammatory reaction was induced by injecting one ml of sterile croton oil solution (1 % in olive oil) into the formed air pouch. After 2 days, the air was removed. On the eighth day, 0.5 ml of Bacteroides fragilis 2 culture (10^6 CFU/ml) were injected into bore granuloma pouches. Each compound was administered orally or subcutaneously at 2 hours after infection. […] During experiment, intake of food and water was free. It was known that the activity of the existing quinolonecarboxylic acid compounds against obligate anaerobic bacteria was very weak. […] This property is also one of excellent characters of the present comound.

[5] = tested on: M. morganii; assay: MIC, in vitro antibacterial activity (clinical isolates); format: cell-based; settings: Morganella morganii, No. of strains 8
[6] = tested on: S. marcescens; assay: as above; format: cell-based; settings: Serratia marcescens, No. of strains 20
[7] = tested on: Campylobacter jejuni; assay: as above; format: cell-based; settings: No. of strains 20
[8] = tested on: B. thetaiotaomicron (0661); assay: MIC, in vitro antibacterial activity (standard strains); format: cell-based; settings: Bacteroides thetaiotaomicron; B. thetaiotaomicron (0661), 10^6 cells/ml, Gram -; read-out: MIC
[9] = tested on: Streptococcus pyogenes (S-8); assay: as above; format: cell-based; settings: Streptococcus pyogenes (S-8), 10^6 cells/ml, Gram +; read-out: MIC
[10] = tested on: Yersinia enterocolitica IID 981; assay: as above; format: cell-based; settings: IID981; Yersinia enterocolitica IID 981, 10^6 cells/ml, Gram -
[11] = tested on: MR-S. aureus; assay: MIC, in vitro antibacterial activity (clinical isolates); format: cell-based; settings: Staphylococcus aureus, No. of strains 46
[12] = tested on: E. faecalis IID 682; assay: MIC, in vitro antibacterial activity (standard strains); format: cell-based; settings: Enterococcus faecalis, IID682; E. faecalis IID 682, 10^6 cells/ml, Gram +
[13] = tested on: Eubacterium lentum GAI 5242; assay: as above; format: cell-based; settings: Eggerthella lenta, GAI5242; Eubacterium lentum GAI 5242, 10^6 cells/ml, Gram +
[14] = tested on: C. perfringens KYA 13123; assay: microbe, parasite or virus in culture; format: cell-based; settings: Clostridium perfringens, KYA13123
[15] = tested on: N. gonorrhoeae; assay: MIC, in vitro antibacterial activity (clinical isolates); format: cell-based; settings: Neisseria gonorrhoeae, No. of strains 16
[16] = tested on: S. marcescens IID 618; format: cell-based
[17] = tested on: Peptococcus magnus KY 017; assay: MIC, in vitro antibacterial activity (standard strains); format: cell-based; settings: Finegoldia magna, KY017; Peptococcus magnus KY 017, 10^6 cells/ml, Gram +
[18] = tested on: Peptostreptococcus anaerobius KYA 27337; assay: as above; format: cell-based; settings: KYA27337; Peptostreptococcus anaerobius KYA 27337, 10^6 cells/ml, Gram +
[19] = tested on: S. pneumoniae IID 552; assay: as above; format: cell-based; settings: Streptococcus pneumoniae, IID552; S. pneumoniae IID 552, 10^6 cells/ml, Gram +; read-out: MIC
[20] = tested on: P. mirabilis IID 994; assay: as above; format: cell-based; settings: Proteus mirabilis, IID994
[21] = tested on: S. pyogenes; assay: MIC, in vitro antibacterial activity (clinical isolates); format: cell-based; settings: Streptococcus pyogenes; clinical isolates S. pyogenes, No. of strains 6; read-out: MIC
[22] = tested on: E. coli; assay: as above; format: cell-based; settings: Escherichia coli, No. of strains 25
Protocol: (§1) Minimal inhibitory concentrations (MICs) were determined in accordance with the method recommended by Japan Society of Chemotherapy.

[23] = tested on: S. aureus; assay: as above; format: cell-based; settings: Staphylococcus aureus, No. of strains 21
Protocol: as §1

[24] = tested on: S. aureus IID 670 (Terajima); assay: MIC, in vitro antibacterial activity (standard strains); format: cell-based; settings: Staphylococcus aureus, IID670, 10^6 cells/ml, Gram +
[25] = tested on: S. pyogenes IID 692; assay: as above; format: cell-based; settings: Streptococcus pyogenes, IID692; S. pyogenes IID 692, 10^6 cells/ml, Gram +
[26] = tested on: Propionibacterium acens 11828; assay: as above; format: cell-based; settings: Propionibacterium acens 11828, 10^6 cells/ml, Gram +
[27] = tested on: Serratia marcescens IID 618; assay: as above; format: cell-based; settings: IID618; Serratia marcescens IID 618, 10^6 cells/ml, Gram -
[28] = tested on: Salmonella enteritidis IID 604; assay: as above; format: cell-based; settings: Salmonella enterica
[29] = tested on: Enterobacter cloacae IID 977; assay: as above; format: cell-based; settings: IID977; Enterobacter cloacae IID 977, 10^6 cells/ml, Gram -
[30] = tested on: B. fragilis 0558; assay: as above; format: cell-based; settings: Bacteroides fragilis; B. fragilis 0558, 10^6 cells/ml, Gram -
[31] = tested on: E. coli ATCC 10536; assay: as above; format: cell-based; settings: Escherichia coli, ATCC10536
[32] = tested on: P. aeruginosa IFO 12689; format: cell-based
[33] = S. marcescens IID 618, Conc. of Drugs 2MIC
[34] = S. marcescens IID 618, Conc. of Drugs 4MIC
[35] = P. aeruginosa IFO 12689, Conc. of Drugs 2MIC
[36] = P. aeruginosa IFO 12689, Conc. of Drugs 4MIC

Row | Compound | MIC [1] [µg/mL] | MIC [2] [µg/mL] | Frequency of spontaneous resistant mutants [3] | Viable cells count (log) / ml ([4]; 6 hr) | Viable cells count (log) / ml ([4]; 24 hr) | MIC [5] [µg/mL] | MIC [6] [µg/mL] | MIC [7] [µg/mL] | MIC [8] [µg/mL] | MIC [9] [µg/mL] | MIC [10] [µg/mL] | MIC [11] [µg/mL] | MIC [12] [µg/mL] | MIC [13] [µg/mL] | MIC [14] [µg/mL] | MIC [15] [µg/mL] | Frequency of spontaneous resistant mutants [16, 33] | Frequency of spontaneous resistant mutants [16, 34] | MIC [17] [µg/mL] | MIC [18] [µg/mL] | also measured
1 | NC1CCN(c2c(F)cc3c(=O)c(C(=O)O)cn(C4CC4)c3c2Cl)C1 (stereo not drawn) [Example 25, 7-(3-Amino-l-pyrrolidinyl)-8-chloro-l-cyclopropyl-6-fluoro-1,4-dihydro-4-oxo-3-quinolinecarboxylic acid] | 0.1 (≈ 0.273 µM) | 0.05 (≈ 0.137 µM) | <2.9 × 10^-9 | 4.6 ± 0.31 (log) / ml | 4.5 ± 0.15 (log) / ml | 0.025 (≈ 0.0683 µM) | 0.05 (≈ 0.137 µM) | 0.05 (≈ 0.137 µM) | 0.2 (≈ 0.547 µM) | 0.05 (≈ 0.137 µM) | 0.025 (≈ 0.0683 µM) | 0.1 (≈ 0.273 µM) | 0.1 | 0.1 | 0.1 (≈ 0.273 µM) | 0.013 (≈ 0.0355 µM) | 1.5 × 10^-8 | <1.0 × 10^-9 | 0.05 | 0.2 | MIC [19]: 0.1 µg/mL (≈ 0.273 µM); MIC [20]: 0.0125 µg/mL (≈ 0.0342 µM); MIC [21]: 0.1 µg/mL (≈ 0.273 µM); MIC [22]: 0.013 µg/mL (≈ 0.0355 µM); MIC [23]: 0.05 µg/mL (≈ 0.137 µM); MIC [24]: 0.05 µg/mL; MIC [25]: 0.1 µg/mL; MIC [26]: 1.56 µg/mL; MIC [27]: 0.05 µg/mL (≈ 0.137 µM); MIC [28]: 0.0125 µg/mL (≈ 0.0342 µM); MIC [29]: 0.05 µg/mL (≈ 0.137 µM); MIC [30]: 0.1 µg/mL (≈ 0.273 µM); MIC [31]: 0.0125 µg/mL (≈ 0.0342 µM); Frequency of spontaneous resistant mutants [32, 35]: 4.5 × 10^-8; Frequency of spontaneous resistant mutants [32, 36]: <6.3 × 10^-10
2 | CC1CN(c2c(F)cc3c(=O)c(C(=O)O)cn(C4CC4)c3c2Cl)CCN1 (stereo not shown) [Ref.2, 8-Chloro-1-cyclopropyl-6-fluoro-1,4-dihydro-7-(3-methyl-1-piperazinyl)-4-oxo-3-quinolinecarboxylic acid] | 0.2 (≈ 0.527 µM) | 0.1 (≈ 0.263 µM) | 3.6 × 10^-7 | 5.1 ± 0.21 (log) / ml | 4.5 ± 0.55 (log) / ml | 0.1 (≈ 0.263 µM) | 0.05 (≈ 0.132 µM) | 0.2 (≈ 0.527 µM) | 0.78 (≈ 2.05 µM) | 0.39 (≈ 1.03 µM) | 0.05 (≈ 0.132 µM) | 0.39 (≈ 1.03 µM) | 0.39 | 0.2 | 0.39 (≈ 1.03 µM) | 0.006 (≈ 0.0158 µM) | 1.0 × 10^-7 | <1.0 × 10^-9 | 0.2 | 0.78 | MIC [19]: 0.39 µg/mL (≈ 1.03 µM); MIC [20]: 0.0125 µg/mL (≈ 0.0329 µM); MIC [21]: 0.39 µg/mL (≈ 1.03 µM); MIC [22]: 0.025 µg/mL (≈ 0.0658 µM); MIC [23]: 0.1 µg/mL (≈ 0.263 µM); MIC [24]: 0.1 µg/mL; MIC [25]: 0.78 µg/mL; MIC [26]: 3.13 µg/mL; MIC [27]: 0.05 µg/mL (≈ 0.132 µM); MIC ([28]; Salmonella enteritidis IID 604, 10^6 cells/ml, Gram -, read-out: MIC): 0.05 µg/mL (≈ 0.132 µM); MIC [29]: 0.05 µg/mL (≈ 0.132 µM); MIC [30]: 0.39 µg/mL (≈ 1.03 µM); MIC [31]: 0.0125 µg/mL (≈ 0.0329 µM); Frequency of spontaneous resistant mutants [32, 35]: 5.5 × 10^-7; Frequency of spontaneous resistant mutants [32, 36]: <6.3 × 10^-10
